According to US11414424B2, “Cardiac sarcomere inhibitors” (Cytokinetics, Inc., priority 2018, dated 2022):

Tested on: bovine cardiac myofibrils
Test: Myofibril assay: PK/LDH-coupled steady-state ATPase activity of skinned bovine cardiac myofibrils
Assay type: biochemical
Conditions: Ca2+ activating to 75% of maximal rate
Protocol: To evaluate the effect of compounds on the ATPase activity of full-length cardiac myosin in the context of the native sarcomere, skinned myofibril assays were performed. Bovine cardiac myofibrils were obtained by homogenizing bovine cardiac left ventricular tissue in the presence of a detergent such as triton X-100. Such treatment removes membranes and a majority of the soluble cytoplasmic proteins but leaves intact the cardiac sarcomeric acto-myosin apparatus. Myofibril preparations retain the ability to hydrolyze ATP in a Ca^2+ regulated manner. ATPase activities of such myofibril preparations in the presence and absence of compounds were assayed at Ca^2+ concentrations activating to a defined fraction of the maximal rate (i.e., […], 75%). Small molecule agents were assessed for their ability to inhibit the steady-state ATPase activity of bovine cardiac myofibrils using pyruvate kinase and lactate dehydrogenase (PK/LDH)-coupled enzyme system. This assay regenerates myosin-produced ADP into ATP by oxidizing NADH, producing an absorbance change at 340 nm. Prior to testing small molecule agents, the bovine cardiac myofibrils were assessed for their calcium responsiveness and the calcium concentration that achieves either a 50% (pCa50) or 75% (pCa75) activation of the myofibril system was chosen as the final condition for assessing the inhibitory activity of the small molecule agents. All enzymatic activity was measured in a buffered solution containing 12 mM PIPES (piperazine-N,N′-bis(2-ethanesulfonic acid), 2 mM magnesium chloride at pH 6.8 (PM 12 buffer). Final assay conditions were 1 mg/mL of bovine cardiac myofibrils, 4 U/mL pyruvate kinase, 6 U/mL lactate dehydrogenase, 50 μM ATP, 0.1 mg/mL BSA (bovine serum albumin), 10 ppm antifoam, 1 mM DTT, 0.5 mM NADH, 1.5 mM PEP, 0.6 mM EGTA, and an amount of CaCl2 sufficient to achieve either 50% or 75% activation of the myofibril ATPase activity. Results for compounds tested are provided in Table A. Compounds tested were prepared in accordance with the synthetic procedures described herein.

CC(C)N1CC(=O)N(Cc2ccc(Cl)cc2)C(c2ccc(Cl)cc2)C1=O (racemic) [Compound 288, 3-(4-chlorophenyl)-4-[(4-chlorophenyl)methyl]-1-(propan-2-yl)piperazine-2,5-dione]
CDMF75 IC15: 1.8 µM

CC(=O)NCC1(C)C(=O)N(c2ncc(Cl)cc2F)CC(=O)N1Cc1ccc(C(F)(F)F)cc1 (racemic) [Compound 630, N-((4-(5-chloro-3-fluoropyridin-2-yl)-2-methyl-3,6-dioxo-1-(4-(trifluoromethyl)benzyl)piperazin-2-yl)methyl)acetamide]
CDMF75 IC15: 18.7 µM

Cc1cnc(N2CC(=O)N(Cc3ccc(C(F)(F)F)cc3)C(C3COC3)C2=O)c(F)c1 (racemic) [Compound 691, 1-(3-fluoro-5-methylpyridin-2-yl)-3-(oxetan-3-yl)-4-(4-(trifluoromethyl)benzyl)piperazine-2,5-dione]
CDMF75 IC15: 27.6 µM

COc1cnc(N2CC(=O)N(Cc3ccc(C(F)(F)F)cc3)C(C3COC3)C2=O)c(F)c1 (racemic) [Compound 703, 1-(3-fluoro-5-methoxypyridin-2-yl)-3-(oxetan-3-yl)-4-(4-(trifluoromethyl)benzyl)piperazine-2,5-dione]
CDMF75 IC15: 10.1 µM

CC(C)N1CC(=O)N(Cc2ccc(Cl)cc2)C(c2ccc(Cl)cc2)C1=O (single isomer, unassigned) [Compound 288B, 3-(4-chlorophenyl)-4-[(4-chlorophenyl)methyl]-1-(propan-2-yl)piperazine-2,5-dione]
CDMF75 IC15: >39 µM

CC(C)N1CC(=O)N(Cc2ccc(Cl)cc2)C2(CCN(C(N)=O)C2)C1=O (single isomer, unassigned) [Compound 367A, 6-[(4-chlorophenyl)methyl]-7,10-dioxo-9-(propan-2-yl)-2,6,9-triazaspiro[4.5]decane-2-carboxamide]
CDMF75 IC15: 8.8 µM

CC(C)N1CC(=O)N(Cc2ccc(Cl)cc2)C2(CCN(C(N)=O)C2)C1=O (single isomer, unassigned) [Compound 367B, 6-[(4-chlorophenyl)methyl]-7,10-dioxo-9-(propan-2-yl)-2,6,9-triazaspiro[4.5]decane-2-carboxamide]
CDMF75 IC15: >39 µM

CC(C)N1CC(=O)N(Cc2ccc(Cl)cc2)C2(CCN(c3ccccn3)C2)C1=O (single isomer, unassigned) [Compound 373B, 6-[(4-chlorophenyl)methyl]-9-(propan-2-yl)-2-(pyridin-2-yl)-2,6,9-triazaspiro[4.5]decane-7,10-dione]
CDMF75 IC15: >39 µM

O=C1CN(c2ccc(Cl)cc2F)C(=O)[C@]2(C[C@@H](O)C2)N1Cc1ccc(C(F)(F)F)cc1 (single isomer, unassigned) [Compound 483B]
CDMF75 IC15: 0.7 µM

COC(=O)[C@H]1C[C@]2(C1)C(=O)N(c1ccc(C#N)cc1F)CC(=O)N2Cc1ccc(Cl)cc1 (single isomer, unassigned) [Compound 488B]
CDMF75 IC15: 0.2 µM

N#Cc1ccc(N2CC(=O)N(Cc3ccc(Cl)cc3)[C@]3(C[C@H](C(=O)N4CCC(O)CC4)C3)C2=O)c(F)c1 (single isomer, unassigned) [Compound 492B]
CDMF75 IC15: 0.4 µM

Cc1nc([C@H]2C[C@]3(C2)C(=O)N(C(C)C)CC(=O)N3Cc2ccc(C(F)(F)F)cc2)oc1C (single isomer, unassigned) [Compound 500B]
CDMF75 IC15: 35.5 µM

CC(=O)NCC1(C)C(=O)N(c2ncc(Cl)cc2F)CC(=O)N1Cc1ccc(C(F)(F)F)cc1 (single isomer, unassigned) [Compound 630A, N-((4-(5-chloro-3-fluoropyridin-2-yl)-2-methyl-3,6-dioxo-1-(4-(trifluoromethyl)benzyl)piperazin-2-yl)methyl)acetamide]
CDMF75 IC15: 9.7 µM

CC(=O)NCC1(C)C(=O)N(c2ncc(Cl)cc2F)CC(=O)N1Cc1ccc(C(F)(F)F)cc1 (single isomer, unassigned) [Compound 630B, N-((4-(5-chloro-3-fluoropyridin-2-yl)-2-methyl-3,6-dioxo-1-(4-(trifluoromethyl)benzyl)piperazin-2-yl)methyl)acetamide]
CDMF75 IC15: >39 µM

Cc1cnc(N2CC(=O)N(Cc3ccc(C(F)(F)F)cc3)C(C3COC3)C2=O)c(F)c1 (single isomer, unassigned) [Compound 691A, 1-(3-fluoro-5-methylpyridin-2-yl)-3-(oxetan-3-yl)-4-(4-(trifluoromethyl)benzyl)piperazine-2,5-dione]
CDMF75 IC15: 12.06 µM

Cc1cnc(N2CC(=O)N(Cc3ccc(C(F)(F)F)cc3)C(C3COC3)C2=O)c(F)c1 (single isomer, unassigned) [Compound 691B, 1-(3-fluoro-5-methylpyridin-2-yl)-3-(oxetan-3-yl)-4-(4-(trifluoromethyl)benzyl)piperazine-2,5-dione]
CDMF75 IC15: >39 µM

COc1cnc(N2CC(=O)N(Cc3ccc(C(F)(F)F)cc3)C(C3COC3)C2=O)c(F)c1 (single isomer, unassigned) [Compound 703A, 1-(3-fluoro-5-methoxypyridin-2-yl)-3-(oxetan-3-yl)-4-(4-(trifluoromethyl)benzyl)piperazine-2,5-dione]
CDMF75 IC15: 4.0 µM

COc1cnc(N2CC(=O)N(Cc3ccc(C(F)(F)F)cc3)C(C3COC3)C2=O)c(F)c1 (single isomer, unassigned) [Compound 703B, 1-(3-fluoro-5-methoxypyridin-2-yl)-3-(oxetan-3-yl)-4-(4-(trifluoromethyl)benzyl)piperazine-2,5-dione]
CDMF75 IC15: 37.2 µM

O=C1C(C2CC(O)C2)N(Cc2ccc(C(F)(F)F)cc2)C(=O)CN1c1ncc(Cl)cc1F (single isomer, unassigned) [Compound 740A, 1-(5-chloro-3-fluoropyridin-2-yl)-3-(3-hydroxycyclobutyl)-4-(4-(trifluoromethyl)benzyl)piperazine-2,5-dione]
CDMF75 IC15: 1.1 µM

O=C1C(C2CC(O)C2)N(Cc2ccc(C(F)(F)F)cc2)C(=O)CN1c1ncc(Cl)cc1F (single isomer, unassigned) [Compound 740B, 1-(5-chloro-3-fluoropyridin-2-yl)-3-(3-hydroxycyclobutyl)-4-(4-(trifluoromethyl)benzyl)piperazine-2,5-dione]
CDMF75 IC15: 0.97 µM

O=C1C(C2CC(O)C2)N(Cc2ccc(C(F)(F)F)cc2)C(=O)CN1c1ncc(Cl)cc1F (single isomer, unassigned) [Compound 740C, 1-(5-chloro-3-fluoropyridin-2-yl)-3-(3-hydroxycyclobutyl)-4-(4-(trifluoromethyl)benzyl)piperazine-2,5-dione]
CDMF75 IC15: >39 µM

O=C1C(C2CC(O)C2)N(Cc2ccc(C(F)(F)F)cc2)C(=O)CN1c1ncc(Cl)cc1F (single isomer, unassigned) [Compound 740D, 1-(5-chloro-3-fluoropyridin-2-yl)-3-(3-hydroxycyclobutyl)-4-(4-(trifluoromethyl)benzyl)piperazine-2,5-dione]
CDMF75 IC15: >39 µM

O=C1C(CO)N(Cc2ccc(C(F)(F)F)cc2)C(=O)CN1c1ncc(Cl)cc1F (single isomer, unassigned) [Compound 857A, 1-(5-chloro-3-fluoropyridin-2-yl)-3-(hydroxymethyl)-4-(4-(trifluoromethyl)benzyl)piperazine-2,5-dione]
CDMF75 IC15: 5.3 µM

O=C1C(CO)N(Cc2ccc(C(F)(F)F)cc2)C(=O)CN1c1ncc(Cl)cc1F (single isomer, unassigned) [Compound 857B, 1-(5-chloro-3-fluoropyridin-2-yl)-3-(hydroxymethyl)-4-(4-(trifluoromethyl)benzyl)piperazine-2,5-dione]
CDMF75 IC15: >39 µM

CCOC(=O)C1CC2(C1)C(=O)N(c1ncc(Cl)cc1F)CC(=O)N2Cc1ccc(C(F)(F)F)cc1 (single isomer, unassigned) [Compound 859A, ethyl 8-(5-chloro-3-fluoropyridin-2-yl)-6,9-dioxo-5-(4-(trifluoromethyl)benzyl)-5,8-diazaspiro[3.5]nonane-2-carboxylate]
CDMF75 IC15: 0.6 µM

CCOC(=O)C1CC2(C1)C(=O)N(c1ncc(Cl)cc1F)CC(=O)N2Cc1ccc(C(F)(F)F)cc1 (single isomer, unassigned) [Compound 859B, ethyl 8-(5-chloro-3-fluoropyridin-2-yl)-6,9-dioxo-5-(4-(trifluoromethyl)benzyl)-5,8-diazaspiro[3.5]nonane-2-carboxylate]
CDMF75 IC15: 0.3 µM

O=C1C(C2COC2)N(Cc2ccc(C(F)(F)F)cc2)C(=O)CN1c1ncc(Cl)cc1F (single isomer, unassigned) [Compound 861B, 1-(5-chloro-3-fluoropyridin-2-yl)-3-(oxetan-3-yl)-4-(4-(trifluoromethyl)benzyl)piperazine-2,5-dione]
CDMF75 IC15: 5.8 µM

O=C1C(C2CC(O)C2)N(Cc2ccc(F)cc2)C(=O)CN1c1ccc(Cl)cc1F (single isomer, unassigned) [Compound 866A, 1-(4-chloro-2-fluorophenyl)-4-(4-fluorobenzyl)-3-(3-hydroxycyclobutyl)piperazine-2,5-dione]
CDMF75 IC15: 4.4 µM
